The source of these data is patent publication US20050090504A1, “Piperidinyl and piperazinyl compounds substituted with bicyclo-heterocyclylalkyl groups useful as CCR3 receptor antagonists” (priority 2003, published 2005).

As a reminder, the melting point is the temperature, or range, at which the solid turns liquid. A word on the IC50: it is the concentration that gives 50% inhibition.

In one series the target is T1, CCR-3 receptor (Homo sapiens, UniProt P51677).
T1 construct: expressed in transfected cells; host or cells: L1.2 (murine pre-beta lymphoma line)
T1 sequence (P51677 1-355): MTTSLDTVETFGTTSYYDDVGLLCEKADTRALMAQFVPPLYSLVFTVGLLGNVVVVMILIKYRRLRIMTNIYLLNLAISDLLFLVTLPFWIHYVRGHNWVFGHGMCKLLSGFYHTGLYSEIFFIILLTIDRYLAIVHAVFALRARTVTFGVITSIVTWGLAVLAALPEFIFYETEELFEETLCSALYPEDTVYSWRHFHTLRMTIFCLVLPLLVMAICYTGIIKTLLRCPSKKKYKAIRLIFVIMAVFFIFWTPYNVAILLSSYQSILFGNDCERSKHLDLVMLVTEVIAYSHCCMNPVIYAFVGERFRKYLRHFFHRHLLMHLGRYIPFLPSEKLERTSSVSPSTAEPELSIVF
Kind of series: CCR-3 Receptor Binding Assay, inhibition of 125I eotaxin binding to CCR-3 L1.2 transfectant cells. The settings on record: CCR-3 L1.2 transfected cells, 1 hour at rt., read-out: CCR3 Binding IC50. The procedure: The CCR-3 antagonistic activity of the compounds of the invention was determined by their ability to inhibit the binding of ^125 I eotaxin to CCR-3 L1.2 transfectant cells (see Ponath, P. D. et al., J. Exp. Med., Vol. 183, 2437-2448, (1996)).
The assay was performed in Costar 96-well polypropylene round bottom plates. Test compounds were dissolved in DMSO and then diluted with binding buffer (50 mM HEPES, 1 mM CaCl2, 5 mM MgCl2, 0.5% bovine serum albumin (BSA), 0.02% sodium azide, pH 7.24) such that the final DMSO concentration was 2%. 25 μl of the test solution or only buffer with DMSO (control samples) was added to each well, followed by the addition of 25 μl of ^125I-eotaxin ([…]) (NEX314, New England Nuclear, Boston, Mass.) and 1.5×10^5 of the CCR-3 L1.2 transfected cells in 25 μl binding buffer. The final reaction volume was 75 μl.
After incubating the reaction mixture for 1 hour at rt., the reaction was terminated by filtering the reaction mixture through polyethylenimine treated Packard Unifilter GF/C filter plate (Packard, Chicago, Ill.). The filters were washed four times with ice cold wash buffer containing 10 mm HEPES and 0.5M sodium chloride (pH 7.2) and dried at 65° C. for approximately 10 minutes. 25 μl/well of Microscint-20® scintillation fluid (Packard) was added and the radioactivity retained on the filters was determined by using the Packard TopCount®. […]

In turn, `Cc1ccc2oc(NC(CN3CCN(Cc4ccc(Cl)c(Cl)c4)CC3)C(C)C)nc2c1` (stereo not drawn) [Example 9, {1-[4-(3,4-Dichloro-benzyl)-piperazin-1-ylmethyl]-2-methyl-propyl}-(5-methyl-benzooxazol-2-yl)-amine] yielded a melting point of 155.3 to 156.9 °C.
Regarding `CC(C)C(CN1CCN(Cc2ccc(Cl)c(Cl)c2)CC1)Nc1nc2ccccc2o1` (stereo not drawn) [Example 28, 1-[2-(Benzooxazol-2-ylamino)-3-methyl-butyl]-4-(3,4-dichloro-benzyl)-piperazin-1-ium; chloride], at CCR-3 receptor, the IC50 came out at 970 nM.
`CC(C)(C)[C@H](CN1CCC(Cc2ccc(Cl)c(Cl)c2)CC1)Nc1nc2ccccc2o1` [Example 18, 1-[(R)-2-(benzooxazol-2-ylamino)-3,3-dimethyl-butyl]-4-(3,4-dichloro-benzyl)-piperidinium; chloride]: the IC50 at CCR-3 receptor is 150 nM.
